We go through 86 compounds from US7989464B2, “mGluR1 antagonists as therapeutic agents” (Schering Corporation, priority 2004, dated 2011).

Where two headings read alike, the source gives them in different places.

The assay has as its target T1, hmGluR1 receptor (Homo sapiens, UniProt Q13255).
T1 construct: expressed in transfected cells
Kind of assay: IC50 determination: intracellular calcium mobilization (FLIPR) upon Quisqualate stimulation in CHO cells stably expressing hmGluR1. The assay is classed as cell-based. The settings on record: against Quisqualate 1 μM (EC80). In short, it runs like this:
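CHO cells stably expressing hmGluR1 were kept overnight in DMEM high glucose with GPT and 1 mM pyruvate, then loaded 2 h with Calcium 3 dye.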
For orientation: Calcium assays in cells follow changes in intracellular calcium, usually with a dye or a luminescent sensor.

Setting [1] is: class symbols, read-out: mGIuR 1 IC50.
Setting [2] is: FLIPR calcium mobilization, read-out: IC50 Class.
Setting [3] is: FLIPR calcium mobilization, read-out: mGluR1 IC50.

T1 sequence (Q13255 19-1194): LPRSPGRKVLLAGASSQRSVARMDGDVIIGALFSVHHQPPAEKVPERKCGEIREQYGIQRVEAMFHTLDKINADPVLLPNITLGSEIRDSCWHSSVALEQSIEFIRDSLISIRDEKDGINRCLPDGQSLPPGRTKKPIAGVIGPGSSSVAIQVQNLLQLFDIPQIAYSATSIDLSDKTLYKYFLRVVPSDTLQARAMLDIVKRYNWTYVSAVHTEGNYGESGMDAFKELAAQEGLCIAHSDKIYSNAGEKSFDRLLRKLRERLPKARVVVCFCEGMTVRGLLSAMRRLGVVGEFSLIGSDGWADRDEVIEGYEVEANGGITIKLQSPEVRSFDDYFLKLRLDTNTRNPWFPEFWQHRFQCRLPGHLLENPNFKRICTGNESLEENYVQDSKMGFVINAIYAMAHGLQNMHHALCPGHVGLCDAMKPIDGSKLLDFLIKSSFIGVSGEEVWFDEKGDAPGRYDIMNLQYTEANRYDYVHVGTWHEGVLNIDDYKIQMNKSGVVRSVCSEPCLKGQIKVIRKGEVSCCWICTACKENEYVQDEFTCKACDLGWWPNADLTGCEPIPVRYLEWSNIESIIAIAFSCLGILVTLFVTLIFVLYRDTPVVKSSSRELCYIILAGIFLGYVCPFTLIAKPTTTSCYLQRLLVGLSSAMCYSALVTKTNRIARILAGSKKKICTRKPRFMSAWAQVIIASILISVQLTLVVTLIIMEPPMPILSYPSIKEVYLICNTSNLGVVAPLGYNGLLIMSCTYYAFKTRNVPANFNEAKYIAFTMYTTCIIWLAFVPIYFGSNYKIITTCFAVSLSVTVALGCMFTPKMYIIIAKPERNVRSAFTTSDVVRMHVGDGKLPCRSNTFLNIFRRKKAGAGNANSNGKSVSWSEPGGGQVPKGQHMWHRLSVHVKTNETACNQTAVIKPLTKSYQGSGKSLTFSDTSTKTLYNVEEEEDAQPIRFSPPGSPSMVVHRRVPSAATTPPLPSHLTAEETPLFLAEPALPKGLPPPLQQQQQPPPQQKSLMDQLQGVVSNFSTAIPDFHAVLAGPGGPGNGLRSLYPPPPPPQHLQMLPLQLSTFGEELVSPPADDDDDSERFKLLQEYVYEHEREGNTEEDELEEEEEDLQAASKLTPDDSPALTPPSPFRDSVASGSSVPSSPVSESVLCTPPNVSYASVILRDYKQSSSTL

For `O=c1c2sc3ncccc3c2ncn1-c1ccccc1` [compound 11], the IC50 under setting [1] was above 1000 nM. Still for that read-out and setting: the result for `Cc1cccc(-n2cnc3c(sc4nccc(N(C)C)c43)c2=O)c1` [7CU] reads below 50 nM. For `COc1ccc(-n2cnc3c(sc4ncnc(OC)c43)c2=O)cc1` [95GO], under setting [2], the IC50 was above 1000 nM. Take `C#CCNc1nc(C)nc2sc3c(=O)n(-c4ccc(OC)cc4)cnc3c12` [95FM]: the IC50 under setting [2] lay within 50 to 150 nM. In the case of `CCNc1ncnc2sc3c(=O)n(-c4ccc(OC(F)(F)F)cc4)cnc3c12` [95V], the IC50 under setting [1] was 150 to 1000 nM. In the case of `COc1c(Br)cnc2sc3c(=O)n(-c4ccc(Cl)cc4)cnc3c12` [28EH], under setting [2], the IC50 is below 50 nM. On to `C#CCOc1ccnc2sc3c(=O)n(-c4ccc(Br)cc4)cnc3c12` [66I], for which the IC50 under setting [2] is below 50 nM. For the compound `O=c1c2sc3ncnc(Nc4ccccc4)c3c2ncn1-c1ccc(Cl)cc1` [95FX], under setting [2], the IC50 lay in the range of 150 to 1000 nM. On to `CCNc1ccnc2sc3c(=O)n(-c4ccncc4)cnc3c12` [28EG], for which the IC50 under setting [2] was 150 to 1000 nM. For the compound `CCNc1ncnc2sc3c(=O)n(-c4ccc(C)nc4)cnc3c12` [95AB], under setting [1], the IC50 was 150 to 1000 nM. For `O=c1c2sc3nccc(NC4CC4)c3c2ncn1-c1ccc2scnc2c1` [131J], the IC50 under setting [2] was below 50 nM. As to `C#CCOc1nncc2sc3c(=O)n(-c4ccc(C)cc4)cnc3c12` [167E], the IC50 under setting [2] is above 1000 nM.

In the case of `COc1cc(Cl)nc2sc3c(=O)n(C4CCCCC4)cnc3c12` [compound 78], under setting [1], the IC50 was above 1000 nM. For the compound `C=C(C)CNc1ccnc2sc3c(=O)n(-c4ccc(Cl)cc4)cnc3c12` [28FD], the IC50 under setting [2] is below 50 nM.

Consider `Nc1c(Br)cnc2sc3c(=O)n(-c4ccc(Cl)cc4)cnc3c12` [compound 196], for which the IC50 under setting [2] was below 50 nM.

Take `O=c1c2sc3nccc(NCCO)c3c2ncn1-c1ccc(Br)cc1` [28GA]: the IC50 under setting [2] is below 50 nM. On the same count and under the same terms, the value for `CNc1ccnc2sc3c(=O)n(-c4ccc5occc5c4)cnc3c12` [28BH] was below 50 nM. On to `CC(=O)c1c(C)nc2sc3c(=O)n(-c4ccc(C)cc4)cnc3c2c1-c1ccc(Cl)cc1` [P-8], for which, under setting [1], the IC50 was 150 to 1000 nM. In the case of `CCc1ccnc2sc3c(=O)n(C4CCCCC4)cnc3c12` [29C], the IC50 under setting [1] is 50 to 150 nM. As to `COc1ccc(-n2cnc3c(sc4nccc(N(C)N)c43)c2=O)cc1` [28DO], the IC50 under setting [2] is below 50 nM. Consider `CN(C)c1ccnc2sc3c(=O)n(-c4cc[nH]n4)cnc3c12` [15W], for which, under setting [1], the IC50 is above 1000 nM.

Take `CCCCc1nc2c(sc3nccc(N(C)C)c32)c(=O)n1-c1ccc(OC)cc1` [116G]: the IC50 under setting [1] was 150 to 1000 nM.

Consider `COc1ccc(-n2cnc3c(sc4ncnc(N)c43)c2=O)cc1` [95FU], for which the IC50 under setting [2] was in the range of 50 to 150 nM. Regarding `CNc1ncnc2sc3c(=O)n(-c4ccc(Cl)cc4)cnc3c12` [95DB], under setting [2], the IC50 is below 50 nM.

Consider `CCN(C)c1ncnc2sc3c(=O)n(-c4ccc5ncsc5c4)cnc3c12` [95I], for which the IC50 under setting [1] is below 50 nM. For the compound `CCN(C)c1ncnc2sc3c(=O)n(-c4ccc(OC(F)(F)F)cc4)cnc3c12` [95R], the IC50 under setting [1] is below 50 nM. `O=c1c2sc3nccc(NC4CC4)c3c2ncn1-c1ccc(C2CC2)cc1` [137I]: under setting [2], the IC50 was in the range of 150 to 1000 nM. As to `COc1ccc(-n2cnc3c(sc4nccc(N(C)C)c43)c2=O)cn1` [7BW], under setting [1], the IC50 is below 50 nM. For the compound `Cc1ccc(-n2cnc3c(sc4ncnc(NCc5cccs5)c43)c2=O)cc1` [95FV], the IC50 under setting [2] fell in the range of 150 to 1000 nM.

In the case of `COc1ccnc2sc3c(=O)n(-c4ccc(Cl)cc4F)cnc3c12` [28FT], the 50% inhibitory concentration (IC50) under setting [2] is 150 to 1000 nM. `CNc1c(Br)cnc2sc3c(=O)n(C4CCCCC4)cnc3c12` [compound 44]: the IC50 under setting [1] was below 50 nM.

With `CCCc1nc2c(sc3nccc(N(C)C)c32)c(=O)n1-c1ccc(C)cc1` [116B], the IC50 under setting [1] was 150 to 1000 nM.

Take `CCN(C)c1ccnc2sc3c(=O)n(-c4ccc(Cl)cc4)cnc3c12` [28IC]: the IC50 by setting is: under setting [2], below 50 nM; under setting [3], 2.09 nM. Turning to `CNc1ncnc2sc3c(=O)n(-c4ccc(OC)c(F)c4)cnc3c12` [95BF], under setting [2], the IC50 is below 50 nM. Regarding `COc1ccc(-n2cnc3c(sc4nc(Cl)cc(NC5CC5)c43)c2=O)cc1` [57D], the IC50 under setting [2] was 150 to 1000 nM. Take `C#CCNc1ncnc2sc3c(=O)n(-c4ccc(Br)cc4)cnc3c12` [95EQ]: the IC50 under setting [2] was below 50 nM. For the compound `COc1ccnc2sc3c(=O)n(-c4ccc5c(c4)OCO5)cnc3c12` [28FY], under setting [2], the IC50 is above 1000 nM. Regarding `C#CCN(C)c1ccnc2sc3c(=O)n(-c4ccc(OC)cc4)cnc3c12` [28DU], the IC50 under setting [2] is below 50 nM. As to `CCN(C)c1ncnc2sc3c(=O)n(-c4ccc5c(c4)OCC5)cnc3c12` [95K], under setting [1], the IC50 was below 50 nM.

Regarding `CNc1ccnc2sc3c(=O)n(-c4ccc(OC)cc4F)cnc3c12` [28BK], the IC50 under setting [2] was below 50 nM. As for `CN(C)c1ncnc2sc3c(=O)n(-c4ccc5occc5c4)cnc3c12` [95AP], the 50% inhibitory concentration (IC50) runs as follows: under setting [2], below 50 nM; under setting [3], 1.6 nM. On to `CN(C)c1ccc(C#N)c2sc3c(=O)n(C4CCCCC4)cnc3c12` [compound 105], for which the IC50 under setting [1] is above 1000 nM. As to `COCCn1cnc2c(sc3ncnc(NC4CCC4)c32)c1=O` [95DW], the IC50 under setting [2] was above 1000 nM. On to `CN(C)c1ccnc2sc3c(=O)n(-c4ccc5nsnc5c4)cnc3c12` [7BN], for which the IC50 under setting [1] is below 50 nM.

For the compound `O=C(Nc1ccnc2sc3c(=O)n(C4CCCCC4)cnc3c12)c1ccccc1` [73C], the IC50 under setting [1] is above 1000 nM. Take `CCN(C)c1ccnc2sc3c(=O)n(-c4ccc(F)cc4)cnc3c12` [28ID]: the IC50 under setting [2] was below 50 nM. With `C=CCn1cnc2c(sc3nccc(N(C)C)c32)c1=O` [7AB], the IC50 under setting [1] lay in the range of 150 to 1000 nM.

Regarding `Cc1cc(N(C)C)c2c(n1)sc1c(=O)n(-c3cccc(Br)c3)cnc12` [7DN], the IC50 under setting [1] was 50 to 150 nM. As to `Cc1ccc(-n2cnc3c(sc4nc(C(F)(F)F)nc(N)c43)c2=O)cc1` [71E], the IC50 under setting [2] was above 1000 nM.

As to `C=Cc1ccc(-n2cnc3c(sc4nccc(N(C)C)c43)c2=O)cc1` [compound 136], the IC50 under setting [1] is below 50 nM.

For the compound `C#CCNc1ccnc2sc3c(=O)n(-c4ccc(OC)cc4)cnc3c12` [28DQ], the IC50 under setting [2] was below 50 nM. Still for that read-out and setting: the result for `COc1ccc(Nc2ncnc3sc4c(=O)n(-c5ccc(Cl)cc5)cnc4c23)cc1` [95GH] reads 50 to 150 nM. For `CN(C)c1ccnc2sc3c(=O)n(-c4cccnc4)cnc3c12` [7O], the IC50 under setting [1] is 50 to 150 nM. Consider `CCNc1ccnc2sc3c(=O)n(-c4ccc(OC)cc4)cnc3c12` [131A], for which the IC50 under setting [1] was below 50 nM. With `COCCNc1ccnc2sc3c(=O)n(-c4ccc(OC)cc4)cnc3c12` [28DC], under setting [2], the IC50 was below 50 nM. In the case of `CN(C)c1cncc2sc3c(=O)n(-c4ccc5c(c4)OCCO5)cnc3c12` [37C], the IC50 under setting [1] lay in the range of 50 to 150 nM. Regarding `CC(=O)NN(C)c1ccnc2sc3c(=O)n(-c4ccc(C)cc4)cnc3c12` [73I], under setting [2], the IC50 is 150 to 1000 nM. With `COc1ccc(-n2cnc3c(sc4nccc(OC)c43)c2=O)cc1F` [28FX], the IC50 under setting [2] is 150 to 1000 nM.

As for `COc1ccc(-n2cnc3c(sc4ncc(Br)c(N(C)C)c43)c2=O)cc1` [compound 151], under setting [1], the IC50 is below 50 nM. Regarding `CN(c1ncnc2sc3c(=O)n(-c4ccc(Cl)cc4)cnc3c12)C1CC1` [95DU], the IC50 under setting [2] was below 50 nM.

Consider `CCN(C)c1ccnc2sc3c(=O)n(-c4ccc(OC)cc4F)cnc3c12` [28BW], for which, under setting [2], the IC50 was below 50 nM. Turning to `CN(C)c1ccnc2sc3c(=O)[nH]cnc3c12` [7E], the IC50 under setting [1] was above 1000 nM. `Cc1noc(-n2cnc3c(sc4nccc(N(C)C)c43)c2=O)c1C` [15AD]: the IC50 under setting [1] lay in the range of 50 to 150 nM. `COc1ccc(-n2cnc3c(sc4ncc(C#N)c(N)c43)c2=O)cc1` [compound 194]: the half-maximal inhibitory concentration (IC50) under setting [2] lay in the range of 150 to 1000 nM.

In the case of `CCN(C)c1ccnc2sc3c(=O)n(C4CCCCC4)cnc3c12` [28Y], under setting [1], the IC50 was below 50 nM. Consider `COc1ccc(-n2cnc3c(sc4nc(C)cc(N(C)C)c43)c2=O)cc1` [7CJ], for which the IC50 under setting [1] is 50 to 150 nM. For `Cc1ccc(-n2cnc3c(sc4ncnc(NC5CCC5)c43)c2=O)cc1` [95DH], under setting [2], the IC50 fell in the range of 150 to 1000 nM. Consider `C#CCNc1ncnc2sc3c(=O)n(-c4ccc(OC)c(F)c4)cnc3c12` [95EK], for which the IC50 under setting [2] lay within 150 to 1000 nM. Consider `C#CC(C)Nc1ccnc2sc3c(=O)n(-c4ccc(C)cc4)cnc3c12` (stereo not shown) [28EZ], for which the IC50 under setting [2] was in the range of 150 to 1000 nM.

For `CCNc1ncnc2sc3c(=O)n(-c4ccc(OC)cc4F)cnc3c12` [95BE], the IC50 under setting [2] was in the range of 50 to 150 nM. On to `O=c1c2sc3nccc(C4CC4)c3c2ncn1-c1ccc(Cl)cc1` [compound 187], for which the IC50 under setting [2] is below 50 nM. In the case of `C#CCNc1ncnc2sc3c(=O)n(-c4ccc5occc5c4)cnc3c12` [95ES], under setting [2], the IC50 was below 50 nM. As for `O=c1c2sc3nccc(NC4CC4)c3c2ncn1-c1ccc(O)cc1` [28HS], the IC50 under setting [2] was below 50 nM.

Take `O=c1c2sc3nccc(NCC4CC4)c3c2ncn1C1CCCCC1` [28AJ]: the IC50 under setting [1] was in the range of 150 to 1000 nM. On to `CC(O)c1ccnc2sc3c(=O)n(-c4ccc(Cl)cc4)cnc3c12` (stereo not shown) [compound 185], for which, under setting [2], the IC50 lay within 50 to 150 nM.

`COc1ccc(-n2cnc3c(sc4nccnc43)c2=O)cc1` [compound 40]: the IC50 under setting [1] was above 1000 nM. Take `COCCNc1ncnc2sc3c(=O)n(-c4ccc(C)cc4)cnc3c12` [95DJ]: the IC50 under setting [2] was below 50 nM. With `CCN(C)c1ccnc2sc3c(=O)n(-c4ccc(C)cc4)c(C)nc3c12` [113I], the IC50 under setting [1] was below 50 nM.

Consider `Cc1ccc(-n2cnc3c(sc4nccc(NC5CCCCC5)c43)c2=O)cc1` [28DF], for which the IC50 under setting [2] is above 1000 nM. Same read-out and setting: the value for `O=c1c2sc3nccc(NCCO)c3c2ncn1-c1ccc2occc2c1` [28BD] was below 50 nM. For the compound `CCCN(C)c1ccnc2sc3c(=O)n(C4CCCCC4)cnc3c12` [28AN], the IC50 under setting [1] is below 50 nM. With `CNc1ccnc2sc3c(=O)n(-c4ccc5c(c4)OCCO5)cnc3c12` [28BZ], under setting [2], the IC50 was below 50 nM.

With `CCN(C)c1ccnc2sc3c(=O)n(-c4ccccc4)c(C)nc3c12` [113D], under setting [1], the IC50 is below 50 nM. Consider `Cc1ccc(-n2cnc3c(sc4nccc(N)c43)c2=O)cc1` [72H], for which, under setting [1], the IC50 was below 50 nM.

Consider `Cc1ccc(-n2cnc3c(sc4ncnc(N(C)C5CC5)c43)c2=O)cc1` [95DZ], for which the IC50 under setting [2] was below 50 nM.

With `Cc1ccc(-n2cnc3c(sc4ncc(Br)c(Cl)c43)c2=O)cc1` [compound 171], the IC50 under setting [2] is above 1000 nM.

One may read the IC50 as the point on the concentration scale where inhibition reaches its midpoint.
